Patent US20240358705A1, “COMPOSITIONS AND METHODS FOR TREATMENT OF CANCER” (Board of Supervisors of Louisiana State University and …, priority 2021, published 2024)

Tests used:
[1] = test system: CD8 T cells; assay: CFSE labeling and T cell proliferation; type: cell-based, mouse; conditions: 72 hours
Protocol: Lymph nodes and spleen were isolated from wild-type C57BL/6N mice. Tissue was mechanically dissociated with the back of a syringe plunger and passed through a […] filter. […] Treated cells were incubated at 37° C., 5% CO2 for the designed study duration. Isolated CD3 T cells were labeled with 1 μM CFDA SE (Thermo #V12883) for 15 minutes at 37° C. protected from light. […] Cells were pelleted, resuspended and plated in an antibody coated well with the indicated drug concentrations at time zero. Activated T cells were incubated at 37° C., 5% CO2 for 72 hours. After study duration, T cells were stained with anti-CD4, anti-CD8, anti-CD3 following the immune profiling by flow cytometry method and proliferation was measured by CFSE dilution.

[2] = test system: CD3 T cells; assay: Granzyme B and perforin immunoblot; type: cell-based, mouse; conditions: for granzyme B protein production, increase compared to DMSO / granzyme B, Log2 fold change compared to DMSO / perforin production, increase compared to DMSO / perforin, Log2 fold change compared to DMSO: 72 hours
Protocol: Lymph nodes and spleen were isolated from wild-type C57BL/6N mice. Tissue was mechanically dissociated with the back of a syringe plunger and passed through a 70 M filter. […] Treated cells were incubated at 37° C., 5% CO2 for the designed study duration.

[3] = test system: BM-MDSCs; assay: MDSC suppression assay; type: cell-based, mouse; conditions: for percent proliferation of CD3 T cells co-cultured with treated BM-MDSCs: DMSO control 40.73%
Protocol: 24-well plates were coated with […] anti-mouse CD3e and anti-mouse CD28 resuspended in PBS for two hours at 37° C., 5% C02. PBS containing coating antibodies were then removed and 1×10^6 naïve CFSE CD3 T cells in 1 ml was added to each well. Treated BM-MDSCs were removed using a rubber policeman. […] Cells were harvested and stained following the immune profiling by flow cytometry method. MDSC suppressive capacity was measured by their ability to inhibit CD3 T cell proliferation measured by CFSE dilution.

[4] = test system: BM-MDSCs; assay: XFe ATP rate assay, BM-MDSCs; type: cell-based, mouse; conditions: 10 μM, 72 hours
Protocol: Bone marrow cells were isolated by flushing the tibia and femurs of wild-type C57BL/6N mice. […] To generate BM-MDSCs, 3×10^6 cells were plated in a 6-well dish and incubated at 37° C., 5% CO2 for 96 hours. For treatment, drugs were administered at either 3 μM or 10 μM concentrations and added to the BM-MDSC cell culture well 24 hours after plating.
Treated CD8 T cell were prepared following the in vitro T cell activation method and incubated for 72 hours at 37° C., 5% CO2. Treated BM-MDSCs were prepared followed the in vitro BM-MDSCs differentiation method. The XFe ATP rate assay preparation and analysis was conducted following the manufacturer's user guide and instructions. […] Treated cells were removed from culture, pelleted and resuspended in warm assay medium at a concentration of 3×10^6 cells/ml (1.5×10^5 cells/well) for CD8 T cells and 2.6×10^6 cells/ml (1.3×10^5 cells/well) for BM-MDSCs. Cells were adhered to the culture plate by centrifugation 200×G, for one minute with zero brake per the manufacturer's instructions for immobilization of non-adherent cells (Agilent, Santa Clara, CA). […] Results were procured using the Seahorse XF real-time ATP rate assay report generator.

[5] = test system: CD8 T cells; assay: Single-cell RNA sequencing; type: cell-based, mouse; conditions: 10 μM, 16 hours
Protocol: Treated CD8 T cells were prepared following the in vitro T cell activation method and incubated for 16 hours at 37° C., […]. Treated T cells were mixed with treated BM-MDSCs at a […] (T cell): 30% (BM-MDSC) ratio moments before analysis. 10,000 cells with greater than 90% viability were used in the analysis at a concentration of 1,000 cells/μl. Barcoded cDNA libraries were prepared using a chromium next GEM single-cell 3′ reagent kit v3.1 (10× Genomics #1000127) following the manufacturer's instructions. […] (Agilent, Santa Clara, CA) DNA was subsequently quantified by fluorometry using a Qubit dsDNA high sensitivity assay kit (Invitrogen #Q32854). DNA libraries were pooled in equimolar ratios and sequenced using an Illumina NextSeq 500 (Illumina, San Diego, CA) following 10× Genomics' instructions. […] Doublets were subsequently removed using DoubletFinder (https://github.com/chris-mcginnis-ucsf/DoubletFinder). An unsupervised clustering and plotting using UMAPs was completed on the remaining cells. CD8 T cells were identified by first conducting CD3 followed by CD8 refinement and reclustering. To characterize the CD8 subsets, the top 50 differentially expressed genes between each subcluster were compared against publicly available datasets, and known genes associated with activation, exhaustion, and memory T cell states. To determine changes in metabolism and cytotoxicity, a curated list of genes associated with glucose, fatty acid, lipid metabolism, and cytotoxicity were generated. Average gene expression by treatment group was determined for each gene and visualized by heatmap.

[6] = test system: B16-OVA; assay: In vivo adoptive cellular transfer, OT-I, B16-OVA tumor; design: species or system mouse
Protocol: C57BL/6N mice were injected with 3×10^5 B16-OVA or B16 subcutaneously in the right flank. Five days after injection, mice were administered 200 μg cyclophosphamide monohydrate (Sigma #C73971G) dissolved in PBS by intraperitoneal injection to induce minor lymphodepletion. 48 hours after lymphodepletion, mice were intravenously adoptively transferred 2.5×10^6 CD8 OT-I or CD8 […] pre-treated ex vivo following the in vitro T cell activation method. Tumor growth rates were determined by tumor volume measurement beginning on day four and continuing three times per week for the study duration. Tumor volumes were determined by the ellipsoid formula: [(Length×Width^2)/2]. At the end of study, tumors were either fixed in 10% formalin or dissociated into a single-cell suspension for flow cytometry. […] Cells were then counted, filtered through a 70 μm cell strainer, and 10×10^6 cells were aliquoted and stained following the immune profiling by flow cytometry method.

[7] = interstitial pulmonary fibrosis; cited from earlier work
[8] = cited from earlier work

For O=c1nc(OC[C@@H]2COCCO2)cc2n1CCc1cc(C#CC3CC3)ccc1-2 [GLPG1205, 9-Cyclopropylethynyl-2-((S)-1-[1,4]dioxan-2-ylmethoxy)-6,7-dihydropyrimido[6,1-a]isoquinolin-4-one], the “CD8 T cell proliferation, Log2 fold change compared DMSO control” value ([1]; 3 μM) was 0.48 Log2 fold change, the “CD8 T cell proliferation, increase vs DMSO” value ([1]; 3 μM) was 39.3% and the “CD8 T cell proliferation, Log2 fold change compared DMSO control” value ([1]; 10 μM) was 0.78 Log2 fold change. For the same molecule, the “CD8 T cell proliferation, increase vs DMSO” value ([1]; 10 μM) was 71.7%, the “granzyme B protein production, increase compared to DMSO” value ([2]; 3 μM) was 3.57 times and the “granzyme B, Log2 fold change compared to DMSO” value ([2]; 3 μM) was 1.84 Log2 fold change. For the same molecule, the “perforin production, increase compared to DMSO” value ([2]; 3 μM) was 3.09 times, the “perforin, Log2 fold change compared to DMSO” value ([2]; 3 μM) was 1.62 Log2 fold change and the “granzyme B protein production, increase compared to DMSO” value ([2]; 10 μM) was 4.04 times. For the same molecule, the “granzyme B, Log2 fold change compared to DMSO” value ([2]; 10 μM) was 2.01 Log2 fold change, the “perforin production, increase compared to DMSO” value ([2]; 10 μM) was 3.86 times and the “perforin, Log2 fold change compared to DMSO” value ([2]; 10 μM) was 1.95 Log2 fold change. For the same molecule, the “expression of Granzyme B and Perforin (western blot)” value ([2]; activated T cells, high doses (FIG. 5)) was “dramatically increases the expression of Granzyme B and perforin”, the “percent proliferation of CD3 T cells co-cultured with treated BM-MDSCs” value ([3]; BM-MDSCs treated with 3 μM) was 64.99% and the “percent proliferation of CD3 T cells co-cultured with treated BM-MDSCs” value ([3]; BM-MDSCs treated with 10 μM) was 62.49%. The “T cell proliferation in mixed culture of MDSC and T cells” value ([3]; FIG. 6 Panel A) was “allows T cells to proliferate (multiply) better”, the “energetic phenotype (energetic map)” value [4] was “glycolytic-predominant quiescent phenotype” and the “percent of ATP generated by glycolysis” value ([4]; DMSO 39.85%) was 45.55%. The “percent of ATP generated by OXPHOS” value ([4]; DMSO 60.15%) was 54.45%, the “ATP production rate through mitochondrial OXPHOS” value ([4]; DMSO 690.95) was 537.83 pmol/min and the “total ATP production rate” value ([4]; DMSO control 1149.1) was 987.48 pmol/min. The “ECAR and PER” value ([4]; vs DMSO) was “did not observe any changes”, the OCR ([4]; vs DMSO) was “overall reduction in OCR” and the “average expression of genes of glucose, fatty acid, lipid metabolism and cytotoxicity (heatmap)” value [5] was “dramatic increase in gene expression”. The “total number of CD8 T cells compared to DMSO control” value [5] was “increase in total CD8”, the “fraction of CD8 T cells identified as naïve” value ([5]; DMSO 26.6%) was 16.2% and the “fraction of CD8 T cells identified as early-effector” value ([5]; DMSO 27.8%) was 41.3%. The “fraction of CD8 T cells identified as effector” value ([5]; DMSO 45.6%) was 42.5%, the “anti-tumor response (tumor volume) after adoptive transfer of pre-treated CD8 OT-I T cells” value ([6]; T cells pre-treated ex vivo with 10 μM, B16-OVA tumor bearing mice, vs sham and DMSO pre-treated) was “significantly enhanced this anti-tumor effect” and the “intratumoral CD8 T cells positive for SIINFEKL tetramer” value ([6]; T cells pre-treated with 10 μM, sham 20%, DMSO pre-treated 27.6%) was 53.7%. The “fibrosis, over the standard of care” value [7] was “non-significant reduction in fibrosis”, the “inflammatory response in ulcerative colitis” value ([8]; in vivo) was “unable to improve the inflammatory response” and the “adverse outcome in ulcerative colitis study” value ([8]; led to the drug's discontinuation) was “worsening of colitis in certain patients”.
